Reference: patent US6288091A, “Antiherpes virus compounds and methods for their preparation and use” (Boehringer Ingelheim Ltd., priority 1999, dated 2001)
Where two headings read alike, the source gives them in different places.

Columns and labels:
[1] = target: T1, HSV-1 helicase-primase (Human herpesvirus 1, UniProt P10189+P10236); experiment: HSV-1 DNA-dependent ATPase assay (inhibition of HSV-1 helicase-primase); assay type: biochemical
T1 construct: made in house; host or cells: Sf21 insect cells triply infected with recombinant baculoviruses (UL5, UL8, UL52)
In short: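 ATP hydrolysis was measured as inorganic phosphate (malachite green/molybdate, 650 nm) after 20 min at 34°. Reaction: 3 μg/mL purified Sf21-expressed UL5/UL8/UL52 helicase-primase, 25 μM single-stranded M13 DNA hybridized to 68-mer, 4 mM ATP, pH 7.5 HEPES buffer, 3.3% DMSO. Net absorbance change with and without inhibitor gave DNA-dependent ATPase activity.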

[2] = system: HCMV (strain AD169); experiment: Inhibition of HCMV replication, plaque reduction assay (PRA, Hs-68 cells); assay type: cell-based, Human Cytomegalovirus (HCMV); conditions: read-out: PRA CMV EC50
In short: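 Hs-68 monolayers (80–90% confluent) were infected with ~50 PFU HCMV AD169 for 2 h at 37°, then given compound in DMEM/5% inactivated FBS, refreshed after 4 days and kept 4 more days. Plaques were counted after formaldehyde fixation and crystal violet staining. EC50 derives from percent plaque reduction versus untreated wells.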

[3] = Human betaherpesvirus 5, AD169, Hs68, Group 1 Table 3 entries
[4] = Group 1 Table 2 entries (Q = CH2)
[5] = Human betaherpesvirus 5, AD169, Hs68, Group 1 Table 2 entries
[6] = Human betaherpesvirus 5, AD169, Hs68, Group 1 Table 1 entries
[7] = Human betaherpesvirus 5, AD169, Hs68, Group 1 Table 5 entries

T1 sequence (P10192 whole entry): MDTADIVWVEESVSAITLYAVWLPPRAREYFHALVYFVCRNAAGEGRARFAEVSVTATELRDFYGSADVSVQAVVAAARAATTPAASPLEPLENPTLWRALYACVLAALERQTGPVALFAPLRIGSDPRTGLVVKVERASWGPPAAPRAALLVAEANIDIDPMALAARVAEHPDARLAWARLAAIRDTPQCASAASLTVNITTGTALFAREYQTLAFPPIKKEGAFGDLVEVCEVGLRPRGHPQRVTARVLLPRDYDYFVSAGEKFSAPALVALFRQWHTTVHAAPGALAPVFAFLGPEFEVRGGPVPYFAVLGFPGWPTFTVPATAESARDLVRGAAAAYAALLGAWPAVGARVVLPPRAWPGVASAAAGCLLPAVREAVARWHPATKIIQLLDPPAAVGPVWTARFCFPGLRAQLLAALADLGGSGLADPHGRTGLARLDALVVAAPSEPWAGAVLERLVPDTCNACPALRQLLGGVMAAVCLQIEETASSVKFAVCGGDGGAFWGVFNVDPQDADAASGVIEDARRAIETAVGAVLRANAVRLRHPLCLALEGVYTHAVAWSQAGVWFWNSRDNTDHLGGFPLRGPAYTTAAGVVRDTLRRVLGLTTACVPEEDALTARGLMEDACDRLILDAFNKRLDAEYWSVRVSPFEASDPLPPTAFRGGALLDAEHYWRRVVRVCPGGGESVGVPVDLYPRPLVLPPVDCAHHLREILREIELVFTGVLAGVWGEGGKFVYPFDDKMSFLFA
T1 sequence (P10236 whole entry): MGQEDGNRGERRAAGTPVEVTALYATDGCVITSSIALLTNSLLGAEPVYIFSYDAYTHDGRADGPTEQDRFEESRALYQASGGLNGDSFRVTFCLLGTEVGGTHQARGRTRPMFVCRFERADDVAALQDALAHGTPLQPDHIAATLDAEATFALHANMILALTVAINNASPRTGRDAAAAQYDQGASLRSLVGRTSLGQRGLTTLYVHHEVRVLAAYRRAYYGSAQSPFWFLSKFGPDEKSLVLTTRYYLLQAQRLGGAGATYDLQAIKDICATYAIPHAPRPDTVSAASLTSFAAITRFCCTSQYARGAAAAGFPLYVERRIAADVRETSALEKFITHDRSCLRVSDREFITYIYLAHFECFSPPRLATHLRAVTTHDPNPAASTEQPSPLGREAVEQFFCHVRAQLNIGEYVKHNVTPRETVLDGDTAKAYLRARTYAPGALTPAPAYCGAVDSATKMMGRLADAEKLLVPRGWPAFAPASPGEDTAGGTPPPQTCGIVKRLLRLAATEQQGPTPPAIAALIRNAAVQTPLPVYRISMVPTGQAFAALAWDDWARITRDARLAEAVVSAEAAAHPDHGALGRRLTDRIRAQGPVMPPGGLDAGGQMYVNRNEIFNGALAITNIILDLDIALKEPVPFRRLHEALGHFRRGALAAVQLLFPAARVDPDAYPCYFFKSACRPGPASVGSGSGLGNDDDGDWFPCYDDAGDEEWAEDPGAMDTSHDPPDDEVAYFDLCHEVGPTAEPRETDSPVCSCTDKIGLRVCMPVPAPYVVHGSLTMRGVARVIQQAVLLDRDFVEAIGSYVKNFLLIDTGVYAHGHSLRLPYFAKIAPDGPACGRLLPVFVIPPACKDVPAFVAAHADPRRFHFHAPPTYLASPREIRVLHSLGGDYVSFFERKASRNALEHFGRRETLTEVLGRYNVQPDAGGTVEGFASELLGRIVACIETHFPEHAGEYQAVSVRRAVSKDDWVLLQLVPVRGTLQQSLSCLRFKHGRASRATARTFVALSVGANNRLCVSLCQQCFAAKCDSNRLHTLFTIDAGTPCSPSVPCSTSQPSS
T1 sequence (P10189 whole entry): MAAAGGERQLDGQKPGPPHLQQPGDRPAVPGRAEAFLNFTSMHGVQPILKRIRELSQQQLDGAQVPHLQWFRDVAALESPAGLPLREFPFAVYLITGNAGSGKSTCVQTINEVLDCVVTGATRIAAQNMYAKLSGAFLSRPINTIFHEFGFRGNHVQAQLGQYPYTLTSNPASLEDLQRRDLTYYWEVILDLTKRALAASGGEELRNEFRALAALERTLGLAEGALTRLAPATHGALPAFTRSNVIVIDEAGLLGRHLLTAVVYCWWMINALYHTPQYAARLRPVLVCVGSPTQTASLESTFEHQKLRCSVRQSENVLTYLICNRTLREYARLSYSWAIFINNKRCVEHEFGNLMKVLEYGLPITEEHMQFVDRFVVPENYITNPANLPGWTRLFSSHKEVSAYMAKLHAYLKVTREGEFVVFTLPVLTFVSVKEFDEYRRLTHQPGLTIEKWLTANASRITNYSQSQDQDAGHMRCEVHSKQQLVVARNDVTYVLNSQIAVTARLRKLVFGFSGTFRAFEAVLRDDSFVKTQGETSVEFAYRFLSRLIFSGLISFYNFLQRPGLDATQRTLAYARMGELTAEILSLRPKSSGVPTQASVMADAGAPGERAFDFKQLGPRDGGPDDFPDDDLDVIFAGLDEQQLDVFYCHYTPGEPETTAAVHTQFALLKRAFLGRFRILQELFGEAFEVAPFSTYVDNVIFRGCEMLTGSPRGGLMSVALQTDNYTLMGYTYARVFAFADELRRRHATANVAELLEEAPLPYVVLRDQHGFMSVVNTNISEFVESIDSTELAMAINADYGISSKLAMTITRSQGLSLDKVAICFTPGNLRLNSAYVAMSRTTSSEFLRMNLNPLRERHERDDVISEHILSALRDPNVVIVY

Structure (SMILES)	IC50 ([1]; Group 1 Table 1 entries) [µM]	EC50 [2, 6] [µM]	also measured
CN(C(=O)CN(Cc1ccccc1)C(=O)C1CCCCC1)c1ccc(-c2csc(N)n2)cc1 [Example 1]	–	–	IC50 ([1]; Group 1 Table 3 entries): 0.053 µM; EC50 [2, 3]: 24 µM
Nc1nc(-c2ccc(NC(=O)CCNCc3ccccc3)cc2)cs1 [Example 1]	–	–	IC50 [1, 4]: 21 µM; EC50 [2, 5]: 30 µM
Nc1nc(-c2ccc(NC(=O)CNCc3ccccc3)cc2)cs1 [Example 1]	6.4	> 60	–
Nc1nc(-c2ccc(NC(=O)CCN(Cc3ccccc3)Cc3ccccc3)cc2)cs1 [Example 2]	–	–	IC50 [1, 4]: 1.2 µM; EC50 [2, 5]: 4.7 µM
CC(C)(C)OC(=O)N[C@@H](Cc1ccccc1)C(=O)Nc1ccc(-c2csc(N)n2)cc1 [Example 3]	–	–	IC50 ([1]; Group 1 Table 5 entries): 0.046 µM; EC50 [2, 7]: 24 µM
Nc1nc(-c2ccc(NC(=O)CCN(Cc3ccccc3)C(=O)c3ccccc3)cc2)cs1 [Example 3]	–	–	IC50 [1, 4]: 2.1 µM; EC50 [2, 5]: 9.2 µM
CC(C)(C)OC(=O)N[C@H](Cc1ccccc1)C(=O)Nc1ccc(-c2csc(N)n2)cc1 [Example 4]	–	–	IC50 ([1]; Group 1 Table 5 entries): 1.5 µM; EC50 [2, 7]: 22 µM
O=C(CN(Cc1ccccc1)C(=O)C1CCCCC1)Nc1ccc(-c2cscn2)cc1 [Example 5]	–	–	IC50 ([1]; Group 1 Table 3 entries): 0.1 µM; EC50 [2, 3]: 16 µM
CNc1nc(-c2ccc(NC(=O)CN(Cc3ccccc3)C(=O)c3ccccc3)cc2)cs1 [Example 6]	–	–	IC50 ([1]; Group 1 Table 3 entries): 0.33 µM; EC50 [2, 3]: 16 µM
Nc1nc(-c2ccc(NC(=O)[C@H](Cc3ccccc3)NCc3ccccc3)cc2)cs1 [Example 6]	–	–	IC50 ([1]; Group 1 Table 5 entries): 1.06 µM; EC50 [2, 7]: 7 µM
CN[C@@H](Cc1ccccc1)C(=O)Nc1ccc(-c2csc(N)n2)cc1 [Example 8]	–	–	IC50 ([1]; Group 1 Table 5 entries): 45 µM; EC50 [2, 7]: 33 µM
Nc1nc(-c2ccc(NC(=O)[C@@H](Cc3ccccc3)N(Cc3ccccc3)C(=O)C3CCCCC3)cc2)cs1 [Example 9]	–	–	IC50 ([1]; Group 1 Table 5 entries): 0.052 µM; EC50 [2, 7]: 8.7 µM
CN(C)c1nc(-c2ccc(NC(=O)CN(Cc3ccccc3)C(=O)c3ccccc3)cc2)cs1 [Example 11]	–	–	IC50 ([1]; Group 1 Table 3 entries): > 50 µM; EC50 [2, 3]: 18 µM
C[C@@H](NCC(=O)Nc1ccc(-c2csc(N)n2)cc1)c1ccccc1 [Example 11]	3.7	19	–
Nc1nc(-c2ccc(NC(=O)CCN(C(=O)c3cccnc3)C3Cc4ccccc4C3)cc2)cs1 [Example 12]	–	–	IC50 [1, 4]: 10 µM; EC50 [2, 5]: 8 µM
CC(C)(C)OC(=O)N(CCC(=O)Nc1ccc(-c2csc(N)n2)cc1)C1Cc2ccccc2C1 [Example 14]	–	–	IC50 [1, 4]: 1.7 µM; EC50 [2, 5]: > 28 µM
CC(C)(C)OC(=O)N(CCC(=O)Nc1ccc(-c2csc(N)n2)cc1)Cc1ccccc1 [Example 15]	–	–	IC50 [1, 4]: 0.28 µM; EC50 [2, 5]: 9 µM
CN(CC(=O)Nc1ccc(-c2csc(N)n2)cc1)Cc1ccccc1 [Example 15]	3.3	6.5	–
Nc1nc(-c2ccc(NC(=O)CN(Cc3ccccc3)Cc3ccccc3)cc2)cs1 [Example 16]	0.55	13	–
Nc1nc(-c2ccc(NC(=O)CCN(Cc3ccccc3)CC3CCCCC3)cc2)cs1 [Example 17]	–	–	IC50 [1, 4]: 0.76 µM; EC50 [2, 5]: > 5 µM
CC(=O)Nc1nc(-c2ccc(NC(=O)CN(Cc3ccccc3)C(C)=O)cc2)cs1 [Example 18]	–	–	IC50 ([1]; Group 1 Table 3 entries): > 100 µM; EC50 [2, 3]: > 81 µM

Structure (SMILES)	IC50 ([1]; Group 1 Table 1 entries) [µM]	EC50 [2, 6] [µM]	also measured
C[C@@H](c1ccccc1)N(CCC(=O)Nc1ccc(-c2csc(N)n2)cc1)C(=O)OC(C)(C)C [Example 18]	–	–	IC50 [1, 4]: 1 µM; EC50 [2, 5]: 3.3 µM
C[C@@H](c1ccccc1)N(CCC(=O)Nc1ccc(-c2csc(N)n2)cc1)Cc1ccccc1 [Example 19]	–	–	IC50 [1, 4]: 0.46 µM; EC50 [2, 5]: 4 µM
CC(C)c1nc(-c2ccc(NC(=O)CN(Cc3ccccc3)C(=O)c3ccccc3)cc2)cs1 [Example 20]	–	–	IC50 ([1]; Group 1 Table 3 entries): > 50 µM; EC50 [2, 3]: 70 µM
C[C@H](NCCC(=O)Nc1ccc(-c2csc(N)n2)cc1)c1ccccc1 [Example 20]	–	–	IC50 [1, 4]: 7.2 µM; EC50 [2, 5]: 13 µM
CC(C)(C)OC(=O)N(CCC(=O)Nc1ccc(-c2csc(N)n2)cc1)CC1CCCCC1 [Example 21]	–	–	IC50 [1, 4]: 0.028 µM; EC50 [2, 5]: 6.5 µM
Nc1nc(-c2ccc(NC(=O)CN(Cc3ccccc3)C(=O)c3ccccc3)cc2)cs1 [Example 23]	0.072	36	–
Nc1nc(-c2ccc(NC(=O)CCN(CC3CCCCC3)C(=O)c3cccnc3)cc2)cs1 [Example 24]	–	–	IC50 [1, 4]: 1.2 µM; EC50 [2, 5]: 31 µM
Nc1nc(-c2ccc(NC(=O)CN(Cc3ccccc3)C(=O)c3ccc(F)cc3)cc2)cs1 [Example 24]	0.048	15	–
C[C@@H](NCCC(=O)Nc1ccc(-c2csc(N)n2)cc1)c1ccccc1 [Example 25]	–	–	IC50 [1, 4]: 13.6 µM; EC50 [2, 5]: > 6 µM
Nc1nc(-c2ccc(NC(=O)CN(Cc3ccccc3)C(=O)Cc3ccccc3)cc2)cs1 [Example 26]	0.5	15	–
Nc1nc(-c2ccc(NC(=O)CN(Cc3ccccc3)C(=O)c3cccnc3)cc2)cs1 [Example 28]	0.43	35	–
Nc1nc(-c2ccc(NC(=O)CN(Cc3ccccc3)C(=O)c3cc[n+]([O-])cc3)cc2)cs1 [Example 30]	0.44	> 88	–
Nc1nc(-c2ccc(NC(=O)CN(Cc3ccccc3)C(=O)Cc3ccccn3)cc2)cs1 [Example 31]	1.6	8.1	–
Nc1nc(-c2ccc(NC(=O)CN(Cc3ccccc3)C(=O)c3cccs3)cc2)cs1 [Example 32]	0.42	8.5	–
Nc1nc(-c2ccc(NC(=O)CN(Cc3ccccc3)C(=O)c3cnccn3)cc2)cs1 [Example 33]	1.1	20	–
Nc1nc(-c2ccc(NC(=O)CN(Cc3ccccc3)C(=O)C3CCCCC3)cc2)cs1 [Example 34]	0.026	15	–
Nc1nc(-c2ccc(NC(=O)CN(Cc3ccccc3)C(=O)CC3CCCCC3)cc2)cs1 [Example 38]	0.088	4.6	–
Nc1nc(-c2ccc(NC(=O)CN(Cc3ccccc3)C(=O)CC3CCCC3)cc2)cs1 [Example 39]	0.059	8.5	–
CC(C)(C)C(=O)N(CC(=O)Nc1ccc(-c2csc(N)n2)cc1)Cc1ccccc1 [Example 41]	0.8	34	–
CC(C)(C)CC(=O)N(CC(=O)Nc1ccc(-c2csc(N)n2)cc1)Cc1ccccc1 [Example 42]	0.026	20	–
CC(C)C(=O)N(CC(=O)Nc1ccc(-c2csc(N)n2)cc1)Cc1ccccc1 [Example 43]	1.6	13	–

Structure (SMILES)	IC50 ([1]; Group 1 Table 1 entries) [µM]	EC50 [2, 6] [µM]	also measured
CC(=O)N(CC(=O)Nc1ccc(-c2csc(N)n2)cc1)Cc1ccccc1 [Example 44]	3.3	37	–
Nc1nc(-c2ccc(NC(=O)CN(Cc3ccccn3)C(=O)C3CCCCC3)cc2)cs1 [Example 47]	0.072	> 103	–
Nc1nc(-c2ccc(NC(=O)CN(Cc3cccnc3)C(=O)C3CCCCC3)cc2)cs1 [Example 48]	0.14	49	–
Nc1nc(-c2ccc(NC(=O)CN(CCc3ccccn3)C(=O)C3CCCCC3)cc2)cs1 [Example 50]	0.6	13	–
Nc1nc(-c2ccc(NC(=O)CN(Cc3cccs3)C(=O)C3CCCCC3)cc2)cs1 [Example 51]	0.063	11	–
C[C@H](c1ccccc1)N(CC(=O)Nc1ccc(-c2csc(N)n2)cc1)C(=O)C1CCCCC1 [Example 52]	0.087	6	–
C[C@@H](c1ccccc1)N(CC(=O)Nc1ccc(-c2csc(N)n2)cc1)C(=O)C1CCCCC1 [Example 53]	0.038	12	–
Nc1nc(-c2ccc(NC(=O)CN(CC3CCCCC3)C(=O)c3ccccc3)cc2)cs1 [Example 60]	1.5	–	EC50 ([2]; Group 1 Table 1 entries): 15 µM
Nc1nc(-c2ccc(NC(=O)CN(CC3CCCCC3)C(=O)C3CCNCC3)cc2)cs1 [Example 62]	–	38	inhibition at 50 µM ([1]; Group 1 Table 1 entries, at 50 μM, read-out: inhibition at 50 μM (printed in the HSV-1 IC50 column)): 29%
Nc1nc(-c2ccc(NC(=O)CN(CCc3ccccc3)C(=O)C3CCCC3)cc2)cs1 [Example 66]	0.4	> 10	–
CC(C)(C)OC(=O)NCC(=O)N(CC(=O)Nc1ccc(-c2csc(N)n2)cc1)Cc1ccccc1 [Example 72]	0.65	24	–
Nc1nc(-c2ccc(NC(=O)CN(CC3CCCCC3)C(=O)Cc3ccccc3)cc2)cs1 [Example 77]	0.37	7.5	–
Nc1nc(-c2ccc(NC(=O)CN(CCc3ccccn3)C(=O)C3CCCC3)cc2)cs1 [Example 79]	0.84	55	–
CC(C)(C)CN(CC(=O)Nc1ccc(-c2csc(N)n2)cc1)C(=O)C1CCCCC1 [Example 80]	0.96	9.5	–
Nc1nc(-c2ccc(NC(=O)CN(Cc3ccc(F)cc3)C(=O)c3ccncc3)cc2)cs1 [Example 84]	0.36	37	–
CC(C)(C)OC(=O)N(CC(=O)Nc1ccc(-c2csc(N)n2)cc1)Cc1ccccc1 [Example 85]	0.016	12	–
C[C@@H](c1ccccc1)N(CC(=O)Nc1ccc(-c2csc(N)n2)cc1)C(=O)OC(C)(C)C [Example 89]	0.098	38	–
CC(C)(C)OC(=O)N(CC(=O)Nc1ccc(-c2csc(N)n2)cc1)Cc1ccncc1 [Example 90]	0.058	88	–
CC(C)(C)NC(=S)N(CC(=O)Nc1ccc(-c2csc(N)n2)cc1)Cc1ccccc1 [Example 93]	0.16	> 24	–
